US7566737B2 (Genfit, priority 2002, dated 2009)

Experiments:
[1] = system: Human normal primary fibroblasts; assay: Antioxidant properties on cell cultures (carboxy-H2DCFDA fluorescence, AAPH stress), fibroblasts; assay type: cell-based; conditions: 25 μM for 24 h, AAPH 750 μM
Method: (§1) The reduction in the intensity of the emitted fluorescence signal was determined in cells treated with the compounds in the following manner.
(§2) Prior to stress the cells with an oxidative agent such as AAPH (CAS number 2997-92-4), cells are incubated with compounds of interest at 25 μM for 24 h. Then the culture medium is discarded and cells are rinsed two times with PBS. Cells are then incubated 30 min at 37° C. with a cell-permeant indicator for reactive oxygen species that is nonfluorescent until the acetate groups are removed by intracellular esterases and oxidation occurs within the cell 5-(and-6)-carboxy-2′,7′-dichlorodihydrofluorescein diacetate (carboxy-H2DCFDA). The probes are prepared in PBS and incubated at the final concentration of 25 μM. After the incubation with the probe, cells are rinsed and incubated another 30 min with the oxidative solution containing AAPH at 750 μM in culture medium without phenol red and serum.
(§3) The fluorescence is then measured with a fluorimeter with the following wavelength, […].
(§4) Two different cell types have been tested with the inventive compounds. Human normal primary fibroblasts and HaCat cells which are a human keratinocyte cell line.

[2] = system: C57BLKS-m Lepr^db transgenic mice; assay: Antidiabetic effect on insulin and glucose; assay type: in vivo, mouse; conditions: 0.1 to 30 mg/Kg/day for 21 days
Method: Genetically modified C57BLKS-m Lepr^db mice were used to asses antidiabetic effect of the inventive compounds. Mice were randomized according to their plasma lipid, glucose and insulin contents. Treatments were administered once daily by gavage (10 ml/kg) for the duration of the treatment. For oral administrations, the drugs were suspended in CMC 1% or CMC 1%+Tween 80 0.1%. The plasma glucose was measured using a kit reagent from Biomerieux (France). The plasma insulin was measured using a solid phase two-site enzyme immunoassay from Crystal Chem Inc. (USA). The results are exemplified in FIGS. 5-1 to 5-4 which illustrate the activity of inventive compounds 29 and 62 on glucose and insulin.

[3] = system: hApoE2 Knock-in transgenic mice; assay: Effects on triglycerides and cholesterol metabolism in vivo; parameters: species or system mouse
Method: Treatment of animals: hApoE2 knock-in transgenic mice were kept on a 12-hour light/dark cycle at a constant temperature of 20±3° C. After a 1 week acclimation, mice were separated in groups of 6 animals selected such that the distribution of their body weight and plasmatic lipid levels determined before the experiment were uniform. The test compounds were suspended in carboxymethylcellulose and administered by intragastric gavage at the indicated doses, once a day for 7 or 8 days. Animals had access to food and water ad libitum. At the end of the experiment the animals were weighed and sacrificed under anesthesia. Blood was collected on EDTA. Plasma was prepared by centrifugation at 3000 rpm for 20 minutes. Organs were harvested, frozen in liquid nitrogen and stored at −80° C. for subsequent analysis.
Measurement of serum lipids: Serum lipid concentrations (total cholesterol and triglycerides) were determined by a colorimetric assay (Boehringer, Mannheim, Germany) according to the supplier's instructions.

human PPARα = molecular target: T1, human PPARα (Homo sapiens, UniProt Q07869); assay: PPARα/Gal4 transactivation system; assay type: cell-based; conditions: PPAR/Gal4 transactivation system
T1 construct: expressed in transfected cells; host or cells: RK13 or COS-7
T1 sequence (Q07869 239-466 limits assumed): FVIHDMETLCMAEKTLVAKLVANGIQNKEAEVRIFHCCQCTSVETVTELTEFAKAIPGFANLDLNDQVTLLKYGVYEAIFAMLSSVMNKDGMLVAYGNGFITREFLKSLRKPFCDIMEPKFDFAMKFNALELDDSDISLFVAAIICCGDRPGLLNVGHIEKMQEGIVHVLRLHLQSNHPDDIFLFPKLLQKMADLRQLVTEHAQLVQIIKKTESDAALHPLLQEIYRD
Method: (§5) PPAR activation was tested in vitro in RK13 or COS-7 fibroblast cell lines by measuring the transcriptional activity of chimeras composed of the DNA binding domain of the yeast Gal4 transcription factor and the ligand binding domain of the different PPARs. These latter results were then confirmed in cell lines according to the following protocols.
(§6) Culture protocols: RK13 were from ECACC (Porton Down, UK) and were grown in DMEM medium supplemented with 10% (V/V) fetal calf serum, 100 U/ml penicillin (Gibco, Paisley, UK) and 2 mM L-glutamine (Gibco, Paisley, UK). COS-7 cells were from ATCC and were grown in DMEM medium supplemented with 10% (V/V) fetal calf serum, 1% penicillin/streptomycine (Biochrom, AG), 1% of amino acids (Gibco) and 1% sodium pyruvate (Gibco).
(§7) The culture medium was changed every two days. Cells were kept at 37° C. in a humidified 95% air/5% CO2 atmosphere.
(§8) Description of plasmids used for transfection: The plasmids Gal4(RE)_TkpGL3, pGal4-hPPARα, pGal4-hPPARγ, pGal4-hPPARδ and pGal4-φ have been described in the literature (Raspe E et al., 1999). The pGal4-hPPARα, pGal4-hPPARγ and pGal4-hPPARδ constructs were obtained by cloning into the pGal4-φ vector PCR-amplified DNA fragments corresponding to the DEF domains of the human PPARs nuclear receptors.
(§9) Transfection of RK13: RK13 cells were seeded in 24-well culture dishes at 5×10^4 cells/well and transfected for 2 hours with the reporter plasmid Gal4(RE)_TkpGL3 (50 ng/well), the expression vectors pGal4-φ, pGal4-hPPARα, pGal4-hPPARγ and pGal-hPPARδ (100 ng/well) and the transfection efficiency control vector pRL-CMV (1 ng/well) according to the previously described protocol (Raspe E, Madsen L, Lefebvre A M, Leitersdorf I, Gelman L, Peinado-Onsurbe J, Dallongeville J, Fruchart J C, Berge R and Staels B, 1999), then incubated for 36 hours with the test compounds. RK13 cells were incubated with the different compounds at concentrations of 10, 30 and 100 μM or 1, 10 and 100 μM for 24 hours. At the end of the experiment, the cells were lysed (Gibco, Paisley, UK) and luciferase activity was determined with a Dual-Luciferase™ Reporter Assay System kit (Promega, Madison, Wis., USA) according to the supplier's instructions. The protein content of the cell extracts was then measured with the Bio-Rad Protein Assay (Bio-Rad, Munich, Germany) as directed by the supplier.
(§10) Transfection of COS7: Cells in suspension are transfected, in the presence of 10% (V/V) fetal calf serum, with 150 ng of DNA per well with a pGal4-PPAR/Gal4(RE)_TkpGL3 ratio of 1/10. Cells are then seeded in 96 well plates (4×10^4 cells/well) and incubated for 24 hours at 37° C. Activation with compounds is performed on 24 hours at 37° C. in culture medium without serum. At the end of the activation period, cells are lysed and luciferase activity is determined, using the Steady Glow Luciferase Kit (Promega), according to the supplier's instructions.

human PPARδ = molecular target: T2, human PPARδ (Homo sapiens, UniProt Q03181); assay: PPARδ/Gal4 transactivation system; assay type: cell-based; conditions: PPAR/Gal4 transactivation system
T2 construct: expressed in transfected cells; host or cells: RK13 or COS-7
T2 sequence (Q03181 211-439 limits assumed): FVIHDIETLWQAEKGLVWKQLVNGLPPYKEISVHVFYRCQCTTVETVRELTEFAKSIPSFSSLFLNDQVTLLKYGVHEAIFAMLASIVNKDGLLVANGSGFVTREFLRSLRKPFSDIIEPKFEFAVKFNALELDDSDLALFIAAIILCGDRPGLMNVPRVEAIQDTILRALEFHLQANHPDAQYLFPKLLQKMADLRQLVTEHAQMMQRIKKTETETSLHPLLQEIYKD
Method: as §5, §6, §7, §8, §9
Transfection of COS7: Cells in suspension are transfected, in the presence of 10% (V/V) fetal calf serum, with 150 ng of DNA per well with a pGal4-PPAR/Gal4(RE)_TkpGL3 ratio of 1/10. […] At the end of the activation period, cells are lysed and luciferase activity is determined, using the Steady Glow Luciferase Kit (Promega), according to the supplier's instructions.

human PPARγ = molecular target: T3, human PPARγ (Homo sapiens, UniProt P37231); assay: PPARγ/Gal4 transactivation system; assay type: cell-based; conditions: PPAR/Gal4 transactivation system
T3 construct: expressed in transfected cells; host or cells: RK13 or COS-7
T3 sequence (P37231 238-503 limits assumed): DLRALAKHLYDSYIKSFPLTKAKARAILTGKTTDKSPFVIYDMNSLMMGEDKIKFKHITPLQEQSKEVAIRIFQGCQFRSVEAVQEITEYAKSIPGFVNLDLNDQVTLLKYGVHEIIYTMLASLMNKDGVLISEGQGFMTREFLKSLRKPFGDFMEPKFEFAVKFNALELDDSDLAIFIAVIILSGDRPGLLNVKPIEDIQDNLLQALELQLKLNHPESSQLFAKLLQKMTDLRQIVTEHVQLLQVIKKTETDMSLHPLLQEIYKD
Method: as §5, §6, §7, §8, §9, §10

HaCat cells = assay: Antioxidant properties on cell cultures (carboxy-H2DCFDA fluorescence, AAPH stress), keratinocytes; assay type: cell-based, human; conditions: 25 μM for 24 h, AAPH 750 μM
Method: as §1, §2, §3, §4

C57Black/6 mice = assay: Prophylactic neuroprotection, cerebral ischemia-reperfusion model (middle cerebral artery occlusion); assay type: in vivo, mouse; conditions: gavage 200 mg/kg/day for 14 days before occlusion; 60 minutes occlusion, 24 hours reperfusion; untreated 37
Method: C57 black/6 mice (wild-type) were used for this experiment. Animals were maintained on a 12 hour light-dark cycle at a temperature of 20° C.±3° C. Water and food were available ad libitum. Food intake and weight gain were recorded all along the experiment. The inventive compounds (200 mg/kg/day) or the vehicle (0.5% carboxycellulose (CMC)) were administered to the animals by gavage, for 14 days before ischemia induction in the middle cerebral artery.
Animals were anesthetized by intraperitoneal injection of 300 mg/kg chloral hydrate. A rectal probe was inserted and body temperature was maintained at 37° C.±0.5° C. Blood pressure was monitored throughout the experiment. Under a surgical microscope, the right carotid artery was exposed by a median incision in the neck. […]
(§11) Twenty-four hours after reperfusion, animals previously treated or not with the compounds were euthanized by pentobarbital overdose. […] Areas were measured and the volume of the infarct and the two hemispheres was calculated by the following formula: (corrected infarct volume=infarct volume−(volume of right hemisphere−volume of left hemisphere)) to compensate for cerebral oedema. […]

C57 black/6 mice = assay: Acute neuroprotection, cerebral ischemia-reperfusion model (middle cerebral artery occlusion); assay type: in vivo, mouse; conditions: 200 mg/kg/day for 72 hours after occlusion; untreated 41
Method: Animals such as those described previously were used for this experiment. Animals were anesthetized by intraperitoneal injection of 300 mg/kg chloral hydrate. A rectal probe was inserted and body temperature was maintained at 37° C.±0.5° C. Blood pressure was monitored throughout the experiment. Under a surgical microscope, the right carotid artery was exposed by a median incision in the neck. The pterygopalatine artery was ligated at its origin and an arteriotomy was fashioned in the external carotid artery so as to insert a nylon monofilament, which was gently advanced to the common carotid artery and then into the internal carotid artery so as to occlude the origin of the middle cerebral artery. The filament was withdrawn one hour later to allow reperfusion.
Animals first subjected to ischemia-reperfusion were treated with the inventive compounds by the oral or systemic route one or more times after reperfusion.
as §11, with “Seventy-two” for “Twenty-four”, “overdose. Brains were rapidly frozen and sliced. Sections were stained with cresyl violet.” for “overdose.”

[4] = 1, 3, 10 and 30 mg/kg/day for 14 days

concentration at which maximal activity is observed (human PPARα) [µM]	concentration at which maximal activity is observed (human PPARδ) [µM]	concentration at which maximal activity is observed (human PPARγ) [µM]	Compound	antioxidant properties on cell cultures (in words) [1]	plasma glucose level [2]	plasma insulin level [2]	plasma cholesterol ([3]; 50 mg/kg/day for 7 or 8 days, FIGS. 4-13, 4-15, 4-17, 4-19)	plasma triglycerides ([3]; 50 mg/kg/day for 7 or 8 days, FIGS. 4-14, 4-16, 4-18, 4-20)	plasma cholesterol [3, 4]	plasma triglycerides [3, 4]	antioxidant properties on cell cultures (in words) (HaCat cells)	infarct volume (C57Black/6 mice) [mm^3]	total corrected infarct volume (C57 black/6 mice) [mm^3]
0.3	3	10	Cc1cc(/C=C/C(=O)c2ccc(OC(F)(F)F)cc2)cc(C)c1OC(C)(C)C(=O)O [Compound 62]	antioxidant properties	decrease	decrease	decrease	decrease	decrease	decrease	antioxidant properties	–	–
–	–	–	Cc1cc(/C=C/C(=O)c2ccc(Cl)cc2)cc(C)c1OC(C)(C)C(=O)OC(C)C [Compound 15, 1-[4-chlorophenyl]-3-[3,5-dimethyl-4-isopropyloxycarbonyldimethylmethyloxyphenyl]prop-2-en-1-one]	–	–	–	–	–	–	–	–	32	29
–	–	–	CC(C)OC(=O)C(C)(C)Oc1ccc(/C=C/C(=O)c2ccccc2O)cc1 [Compound 42]	–	–	–	–	–	–	–	–	24	29
